Consider 8 compounds from the supplement of paper PMC8253809.

In test [1] the test system is HGGX39 (paediatric high-grade glioma line). Kind of test: area under dose-response curve of % growth inhibition (log2 RLU vs DMSO / staurosporine), 1e-11 to 1e-4 M (% x log10 M); higher = more growth inhibition. The method, boiled down:
(§1)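 Patient-derived pHGG/DIPG cell lines and astrocytes were plated in 384-well plates coated with 1% Geltrex and treated in triplicate with a 10-point threefold dilution series whose mean top concentration was 35 μM, for 7 days (3 days for iAstro) at 37 °C and 5% CO2. CellTiter-Glo luminescence was log2-transformed and scaled on each plate to % activity between solvent and positive controls. Area under the curve came from the trapezoid rule applied to a fitted log-logistic curve, or to a smoothing spline where the sigmoid fit failed.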

Test [2] relates to SUDIPGVI (diffuse intrinsic pontine glioma line)
Described as above. In short, it runs like this: as §1

The subject of test [3] is HABS (astrocyte control). Described as above. The method, boiled down:
as §1

For test [4], the system named is SUDIPGXIX (diffuse intrinsic pontine glioma line)
Described as above. The method, boiled down:
as §1

In test [5] the test system is DIPGX7 (H3.3 K27M diffuse intrinsic pontine glioma line). The test is described as above. In short, it runs like this:
as §1

Test [6] concerns iAstro (astrocyte control). The description is as above. The method, boiled down:
as §1

In test [7] the test system is DIPGX9 (diffuse intrinsic pontine glioma line). The test is described as above. The method, boiled down:
as §1

Test [8] deals with SUDIPGIV (diffuse intrinsic pontine glioma line)
The description is as above. In short, it runs like this:
as §1

Test [9] relates to HGGX42 (H3.3 G34R paediatric high-grade glioma line). The description is as above. In short, it runs like this: as §1
Test [10] relates to DIPGX37 (H3.3 K27M diffuse intrinsic pontine glioma line). The test is described as above. In short, it runs like this: as §1
Test [11] deals with HGGX6 (H3.3 G34R paediatric high-grade glioma line). Described as above. The method, boiled down:
as §1

Test [12] deals with SUDIPGXIII (diffuse intrinsic pontine glioma line)
The description is as above. The method, boiled down: as §1

The subject of test [13] is SUDIPGXVII (diffuse intrinsic pontine glioma line)
The test is described as above. The method, boiled down:
as §1

The subject of test [14] is HGGX2 (paediatric high-grade glioma line). The test is described as above. In short, it runs like this: as §1
Test [15] deals with DIPGX29 (H3.3 K27M diffuse intrinsic pontine glioma line). Described as above. In short, it runs like this:
as §1

For test [16], the system named is SUDIPGXXI (diffuse intrinsic pontine glioma line)
The description is as above. The method, boiled down: as §1

Test [17] concerns SUDIPGXIX
Description: EC50 (inflection of fitted growth-inhibition curve) (log10 M). In short, it runs like this: (§2)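 Treatment used a pin tool and a 10-point threefold dilution series, mean top concentration 35 μM, run in triplicate on patient-derived pHGG/DIPG cell lines and astrocyte controls in 1% Geltrex-coated 384-well plates. Plates were kept at 37 °C, 5% CO2 for 7 days (iAstro: 3 days). Log2-transformed CellTiter-Glo luminescence was scaled per plate to % activity between negative (solvent) and positive control wells and pooled before fitting. EC50 and maximal response (yFin) came from the three- or four-parameter log-logistic fit chosen by lowest AICc.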

In test [18] the test system is iAstro. The test is described as above. The method, boiled down:
as §2

In test [19] the test system is SUDIPGXXI
The test is described as above. The method, boiled down:
as §2

The test system of test [20] is SUDIPGXIX
Description: maximal growth inhibition (yFin) relative to DMSO / staurosporine; higher = more efficacious. In short, it runs like this:
as §2

For test [21], the system named is iAstro. The test is described as above. In short, it runs like this: as §2
Test [22] has as its system SUDIPGXXI
The test is described as above. In short, it runs like this:
as §2

For test [23], the system named is HGGX39. Description: EC50 (inflection of fitted growth-inhibition curve) (log10 M). In short, it runs like this:
as §2

Test [24] relates to SUDIPGIV
Described as above. The method, boiled down: as §2

In test [25] the test system is HGGX39. Kind of test: maximal growth inhibition (yFin) relative to DMSO / staurosporine; higher = more efficacious. In short, it runs like this: as §2
Test [26] relates to SUDIPGIV
The test is described as above. In short, it runs like this:
as §2

Consider `COc1ccc(Cn2ccc3ccc(C(=O)NO)cc32)cc1`, for which the “area under dose-response curve” value stood at 10.3 in [1]; 2.84 in test [2]; 11.9 in test [3]; 24.5 in test [4]; 20.3 in test [5]; 47 in test [6]. The “area under dose-response curve” value amounted to 19.1 in [7]; 6.64 in [8]; 25.8 in [9]; 30.6 in test [10]; 5.76 in [11]; 30.1 in test [12]. The “area under dose-response curve” value in test [13] came to 7.72; in [14], 14.8; in test [15] it was 24.9; in test [16], 91.2. In addition, the “EC50 (log10 M)” value was -4.78 in [17], -4.67 in test [18] and -4.78 in test [19]. In addition, the maximal growth inhibition amounted to 31.4% in [20], 47.6% in test [21] and 117% in test [22].

For the compound `N=C(N)c1ccc(N=NNc2ccc(C(=N)N)cc2)cc1` [BERENIL], the “area under dose-response curve” value amounted to 84.7 in test [1]; 15.1 in test [2]; 0.995 in test [3]; 0 in test [4]; 20.8 in test [5]; 1.3 in [6]. Besides, the “area under dose-response curve” value in test [7] turned out to be 5.74; in test [8] it was 43.8; in test [9], 0; in test [10], 90.7; in test [11], 52.7; in [12], 14.9. Further, the “area under dose-response curve” value in test [13] was determined as 13.8; in [14], 0; in test [15], 41.8; in test [16], 53.1. Besides, the “EC50 (log10 M)” value was -5.18 in [23], -5.18 in [24] and -5.13 in [19]. Also, the values for the maximal growth inhibition in test [25], in [26] and in test [22] were 68.7%, 38.7% and 46.9%, respectively.

On to `CO[C@H]1C(=O)[C@]2(C)[C@@H](OC)C[C@H]3OC[C@@]3(OC(C)=O)[C@H]2[C@H](OC(=O)c2ccccc2)[C@]2(O)C[C@H](OC(=O)[C@H](O)[C@@H](NC(=O)OC(C)(C)C)c3ccccc3)C(C)=C1C2(C)C` [CABAZITAXEL], for which the “area under dose-response curve” value came out at 123 in [1]; 37.8 in test [2]; 147 in [3]; 120 in [4]; 68.4 in test [5]; 79.4 in test [6]. Besides, the “area under dose-response curve” value in test [7] is 141; in [8] it was 255; in [9], 102; in [10], 119; in test [11], 78.2; in [12], 29.9. Moreover, the “area under dose-response curve” value in test [13] turned out to be 50.5; in test [14], 156; in test [15], 71.3; in test [16], 515.

With `CC(C)[C@H]1C(=O)N[C@@H](CCCNC(=N)N)C(=O)NCC(=O)N[C@@H](CC(=O)O)C(=O)N[C@H](Cc2ccccc2)C(=O)N1C` [CILENGITIDE], the “area under dose-response curve” value in test [1] came to 4.22; in [2], 0; in test [3], 3.86; in test [4] it was 0; in test [5], 15.6; in test [6], 0. For the same compound, the “area under dose-response curve” value in test [7] turned out to be 8.99; in test [8], 4.77; in test [9] it was 11.4; in test [10], 4.08; in [11], 2.93; in [12], 0. The “area under dose-response curve” value in [13] was found to be 4.38; in test [14], 8.33; in test [15] it was 10.1; in test [16], 1.67.

As for `CC(C)(C)c1nc(-c2cccc(NS(=O)(=O)c3c(F)cccc3F)c2F)c(-c2ccnc(N)n2)s1` [DABRAFENIB], the “area under dose-response curve” value in [1] turned out to be 25.7; in test [2], 2.65; in test [3] it was 19.7; in test [4], 0; in test [5], 20.8; in test [6], 3.65. Also, the “area under dose-response curve” value was found to be 3.09 in test [7]; 18.7 in test [8]; 7.39 in [9]; 11.5 in [10]; 21.9 in [11]; 0.214 in test [12]. Moreover, the “area under dose-response curve” value in [13] was 3.63; in test [14] it was 0; in test [15], 3.8; in [16], 13.7.

Turning to `CCN(c1cc(-c2ccc(CN3CCOCC3)cc2)cc(C(=O)NCc2c(C)cc(C)[nH]c2=O)c1C)C1CCOCC1` [EPZ-6438], the “area under dose-response curve” value in test [1] amounted to 1.99; in [2], 0; in test [3] it was 12.9; in [4] it was 0.349; in test [5], 5.15; in [6], 5.32. For the same compound, the “area under dose-response curve” value is 0 in test [7]; 9.17 in [8]; 0 in test [9]; 0 in [10]; 0 in [11]; 2.24 in test [12]. In addition, the “area under dose-response curve” value was determined as 4.66 in test [13], 0 in [14], 4.38 in test [15] and 6.79 in [16].

Consider `CC12CC3CC(C)(C1)CC(N)(C3)C2` [MEMANTINE], for which the “area under dose-response curve” value in [1] amounted to 0.964; in test [2] it was 0; in test [3], 2.39; in [4], 1.83; in test [5], 13.8; in [6], 0.365. The “area under dose-response curve” value was found to be 1.54 in test [7]; 6.14 in test [8]; 0.942 in [9]; 1.76 in test [10]; 2.25 in test [11]; 0 in test [12]. In addition, the “area under dose-response curve” value was 1.91 in [13], 2.91 in [14], 3.62 in test [15] and 21.5 in test [16]. Moreover, in test [19], the “EC50 (log10 M)” value was -4.68. Also, in test [22], the maximal growth inhibition came out at 32.5%.

As to `N[C@H]1C[C@@H]1c1ccc(-c2cccc(O)c2)cc1` [OG-L002], the “area under dose-response curve” value in test [1] was found to be 78.2; in [2], 3.43; in test [3], 7.06; in [4] it was 222; in test [5], 138; in test [6], 35.4. Moreover, the “area under dose-response curve” value in [7] came out at 24.4; in test [8], 174; in [9], 100; in test [10] it was 78.6; in test [11] it was 51.3; in [12] it was 0. The “area under dose-response curve” value was 103 in test [13], 81.6 in test [14], 67.6 in [15] and 7.31 in test [16]. Besides, in test [17], the “EC50 (log10 M)” value is -6.55. Further, the maximal growth inhibition in [20] was found to be 87.2%.
